Common to all, as to assay: isothermal titration calorimetry
Holding throughout (assay type): binding
A general note: ITC needs no label: the signal is the heat of the interaction.

The target of test [1] is T1, human eEFSec (Homo sapiens, UniProt P57772).
T1 construct: intact full-length, N-terminal 6xHis tag (pET15b, no tag removal described), E. coli Lemo21(DE3); monomer in solution; SeMet form also made for phasing
T1 sequence (P57772 1-596): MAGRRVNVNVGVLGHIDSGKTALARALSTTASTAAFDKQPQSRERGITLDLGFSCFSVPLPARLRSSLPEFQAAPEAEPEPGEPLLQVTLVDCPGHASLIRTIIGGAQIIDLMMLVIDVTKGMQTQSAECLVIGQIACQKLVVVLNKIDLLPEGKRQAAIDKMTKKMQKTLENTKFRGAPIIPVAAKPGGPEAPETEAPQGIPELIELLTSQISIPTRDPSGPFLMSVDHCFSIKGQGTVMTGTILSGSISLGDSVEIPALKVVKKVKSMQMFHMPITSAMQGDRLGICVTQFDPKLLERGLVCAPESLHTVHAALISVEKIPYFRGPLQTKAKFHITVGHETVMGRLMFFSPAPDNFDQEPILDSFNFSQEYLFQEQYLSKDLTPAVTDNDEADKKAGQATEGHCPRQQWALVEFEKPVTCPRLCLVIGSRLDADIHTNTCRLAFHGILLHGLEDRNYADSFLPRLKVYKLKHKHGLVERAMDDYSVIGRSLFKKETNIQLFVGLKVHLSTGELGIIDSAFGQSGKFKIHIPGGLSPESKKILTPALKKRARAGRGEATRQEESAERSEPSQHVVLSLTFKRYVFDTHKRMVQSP

Test [2] has as its target T2, human eEFSec (Homo sapiens, UniProt P57772, D92A).
T2 construct: intact full-length, N-terminal 6xHis tag (pET15b, no tag removal described), E. coli Lemo21(DE3); monomer in solution; SeMet form also made for phasing
T2 sequence (P57772 1-596 D92A): T1 sequence (P57772 1-596) with D92A

Test [3] has as its target T3, human eEFSec (Homo sapiens, UniProt P57772, T48A).
T3 construct: intact full-length, N-terminal 6xHis tag (pET15b, no tag removal described), E. coli Lemo21(DE3); monomer in solution; SeMet form also made for phasing
T3 sequence (P57772 1-596 T48A): T1 sequence (P57772 1-596) with T48A

The target of test [4] is T4, human eEFSec (Homo sapiens, UniProt P57772, H96A).
T4 construct: intact full-length, N-terminal 6xHis tag (pET15b, no tag removal described), E. coli Lemo21(DE3); monomer in solution; SeMet form also made for phasing
T4 sequence (P57772 1-596 H96A): T1 sequence (P57772 1-596) with H96A

Molecules are shown by their SMILES. Where a chain is given by its changes, count along the chain named.

The Kd is the free concentration of one partner at which half of the binding sites on the other are occupied at equilibrium, for simple one-to-one binding. The low end stands for a tighter complex, the high end for a looser complex. For the compound `Nc1nc(O)c2ncn([C@@H]3O[C@H](COP(=O)(O)OP(=O)(O)C[P+]([O-])(O)O)[C@@H](O)[C@H]3O)c2n1` [GDPCP], binding in test [1] was characterised by a dissociation constant (Kd) of 1850 ± 240 nM.

For the compound `Nc1nc2c(ncn2[C@@H]2O[C@H](COP(=O)(O)OP(=O)(O)NP(=O)(O)O)[C@@H](O)[C@H]2O)c(=O)[nH]1` [GDPNP], in test [1], binding was characterised by a dissociation constant (Kd) of 1200 ± 470 nM.

Consider `Nc1nc2c(ncn2[C@@H]2O[C@H](COP(=O)(O)OP(=O)(O)O)[C@@H](O)[C@H]2O)c(=O)[nH]1` [GDP], for which the Kd in test [2] came to 1500 ± 130 nM; in test [1] it was 190 ± 50 nM; in test [3] it was 240 ± 50 nM; in test [4], 1300 ± 240 nM.

Regarding `Nc1nc2c(ncn2[C@@H]2O[C@H](COP(=O)(O)OP(=O)(O)OP(=O)(O)O)[C@@H](O)[C@H]2O)c(=O)[nH]1` [GTP], the Kd was 8470 ± 490 nM in test [2], 1210 ± 260 nM in test [1], 1820 ± 110 nM in test [3] and 1600 ± 750 nM in test [4].

The compound `Nc1nc2c(ncn2[C@@H]2O[C@H](COP(=O)(O)OP(=O)(O)OP(O)(O)=S)[C@@H](O)[C@H]2O)c(=O)[nH]1` [GTPγS] registered a Kd in test [1] of 480 ± 60 nM.

The record behind these values is paper PMC5059743, “Crystal structures of the human elongation factor eEFSec suggest a non-canonical mechanism for selenocysteine incorporation” (Nature Communications, 2016).
